The values that follow come from ChEMBL document CHEMBL1139614, “Synthesis and antibacterial activity of novel (un)substituted benzotriazolyl oxazolidinone derivatives” (2005).

Converted amounts (≈) assume the structure as drawn. The source made the active and inactive calls. The calls are words filed in the database; no cut-off is given here.

Experiment [1] has as its system Salmonella enterica subsp. enterica serovar Abony. Briefly: In vitro minimum inhibitory concentration against Salmonella abony (NCTC 6017). The experiment is classed as functional.
The subject of experiment [2] is Enterococcus faecium. Briefly: In vitro minimum inhibitory concentration against Enterococcus faecium (6A-VRE). The format is functional.
The test system of experiment [3] is Staphylococcus aureus. Briefly: In vitro minimum inhibitory concentration against methicillin-resistant Staphylococcus aureus (ST450, ATCC 15187, ICH 1 and 37). The format is functional.
The test system of experiment [4] is Staphylococcus epidermidis. The experiment is described as follows: In vitro minimum inhibitory concentration against Staphylococcus epidermidis (ATCC 12228). The format is functional.
The subject of experiment [5] is Staphylococcus epidermidis. The experiment is described as follows: In vitro minimum inhibitory concentration against methicillin-resistant Staphylococcus epidermidis (ATCC 23760). The format is functional.
For experiment [6], the system named is Enterococcus faecalis. The experiment is described as follows: In vitro minimum inhibitory concentration against Enterococcus faecalis [(VRE) ATCC 346-VRE and 5B-VRE]. The experiment is classed as functional.
Experiment [7] concerns Pseudomonas aeruginosa. The experiment is described as follows: In vitro minimum inhibitory concentration against Pseudomonas aeruginosa (ATCC 27853). The experiment is classed as functional.
In experiment [8] the test system is Bacillus pumilus. Briefly: In vitro minimum inhibitory concentration against Bacillus pumilus (ATCC 14884). The format is functional.
The test system of experiment [9] is Escherichia coli. The experiment is described as follows: In vitro minimum inhibitory concentration against Escherichia coli (ATCC 25922). The format is functional.
The subject of experiment [10] is Enterococcus faecalis. The experiment is described as follows: In vitro minimum inhibitory concentration against Enterococcus faecalis (ATCC 29212 and 21777). The format is functional.
Experiment [11] has as its system Staphylococcus aureus. The experiment is described as follows: In vitro minimum inhibitory concentration against Staphylococcus aureus (ATCC 25923 and 29213). The experiment is classed as functional.
Experiment [12] concerns Staphylococcus saprophyticus. Briefly: In vitro minimum inhibitory concentration against Staphylococcus saprophyticus (ATCC 15305). The format is functional.
Experiment [13] deals with Enterococcus faecium. The experiment is described as follows: In vitro minimum inhibitory concentration against Enterococcus faecium (6A-VRE); NA= Not active in preliminary screening up to 50 ug/mL. The experiment is classed as functional, organism-based.
Experiment [14] deals with Pseudomonas aeruginosa. The experiment is described as follows: In vitro minimum inhibitory concentration against Pseudomonas aeruginosa (ATCC 27853); NA= Not active in preliminary screening up to 50 ug/mL. The format is functional, organism-based.
In experiment [15] the test system is Salmonella enterica subsp. enterica serovar Abony. The experiment is described as follows: In vitro minimum inhibitory concentration against Salmonella abony (NCTC 6017); NA= Not active in preliminary screening up to 50 ug/mL. The experiment is classed as functional, organism-based.
Experiment [16] relates to Staphylococcus epidermidis. Briefly: In vitro minimum inhibitory concentration against Staphylococcus epidermidis (ATCC 12228); NA= Not active in preliminary screening up to 50 ug/mL. The format is functional, organism-based.
In experiment [17] the test system is Staphylococcus aureus. The experiment is described as follows: In vitro minimum inhibitory concentration against methicillin-resistant Staphylococcus aureus (ST450, ATCC 15187, ICH 1 and 37); NA= Not active in preliminary screening up to 50 ug/mL. The experiment is classed as functional, organism-based.
Experiment [18] deals with Staphylococcus saprophyticus. Briefly: In vitro minimum inhibitory concentration against Staphylococcus saprophyticus (ATCC 15305); NA= Not active in preliminary screening up to 50 ug/mL. The format is functional, organism-based.
Experiment [19] concerns Staphylococcus epidermidis. Briefly: In vitro minimum inhibitory concentration against methicillin-resistant Staphylococcus epidermidis (ATCC 23760); NA= Not active in preliminary screening up to 50 ug/mL. The format is functional, organism-based.
Experiment [20] deals with Enterococcus faecalis. The experiment is described as follows: In vitro minimum inhibitory concentration against Enterococcus faecalis (ATCC 29212 and 21777); NA= Not active in preliminary screening up to 50 ug/mL. The experiment is classed as functional, organism-based.
Experiment [21] has as its system Bacillus pumilus. Briefly: In vitro minimum inhibitory concentration against Bacillus pumilus (ATCC 14884); NA= Not active in preliminary screening up to 50 ug/mL. The format is functional, organism-based.
For experiment [22], the system named is Enterococcus faecalis. The experiment is described as follows: In vitro minimum inhibitory concentration against Enterococcus faecalis [(VRE) ATCC 346-VRE and 5B-VRE]; NA= Not active in preliminary screening up to 50 ug/mL. The format is functional, organism-based.
Experiment [23] has as its system Staphylococcus aureus. The experiment is described as follows: In vitro minimum inhibitory concentration against Staphylococcus aureus (ATCC 25923 and 29213); NA= Not active in preliminary screening up to 50 ug/mL. The experiment is classed as functional, organism-based.
In experiment [24] the test system is Staphylococcus aureus. The experiment is described as follows: In vitro minimum inhibitory concentration against Staphylococcus aureus (ATCC 25923 and 29213); Range 2-4 ug/mL. The experiment is classed as functional.
For experiment [25], the system named is Escherichia coli. The experiment is described as follows: In vitro minimum inhibitory concentration against Escherichia coli (ATCC 25922); NA= Not active in preliminary screening up to 50 ug/mL. The format is functional, organism-based.
Experiment [26] deals with Staphylococcus epidermidis. The experiment is described as follows: In vitro minimum inhibitory concentration against Staphylococcus epidermidis (ATCC 12228); Range= 0.125-0.25 ug/mL. The format is functional.
The subject of experiment [27] is Enterococcus faecalis. The experiment is described as follows: In vitro minimum inhibitory concentration against Enterococcus faecalis [(VRE) ATCC 346-VRE and 5B-VRE]; Range= 0.125-0.25 ug/mL. The format is functional.
The test system of experiment [28] is Staphylococcus aureus. Briefly: In vitro minimum inhibitory concentration against methicillin-resistant Staphylococcus aureus (ST450, ATCC 15187, ICH 1 and 37); Range= 0.125-0.25 ug/mL. The format is functional.

As usually defined, the MIC is the least concentration at which growth counts as inhibited.

Consider `CCN(CC)CC/N=C(\S)NC[C@H]1CN(c2ccc(-n3nnc4ccccc43)c(F)c2)C(=O)O1`, for which the MIC in experiment [1], in [2], in experiment [3], in [4], in experiment [5] and in experiment [6] was more than 16 µg/mL each time. The minimum inhibitory concentration (MIC) in [7], in experiment [8], in experiment [9], in experiment [10] and in experiment [11] was more than 16 µg/mL throughout.

Take `N=C(S)NC[C@H]1CN(c2ccc(-n3nnc4ccccc43)c(F)c2)C(=O)O1`: the MIC was more than 16 µg/mL in experiment [1]; 16 µg/mL (≈ 41.4 µM) in experiment [2]; 0.25 µg/mL (≈ 0.647 µM) in [3]; 0.25 µg/mL (≈ 0.647 µM) in experiment [4]; 0.125 µg/mL (≈ 0.323 µM) in experiment [5]; 0.25 µg/mL (≈ 0.647 µM) in experiment [6]. The MIC in experiment [7] was more than 16 µg/mL; in experiment [8], 0.25 µg/mL (≈ 0.647 µM); in [9], more than 16 µg/mL; in experiment [10], 0.25 µg/mL (≈ 0.647 µM); in experiment [11], 0.25 µg/mL (≈ 0.647 µM).

`CN(C)CCO/C(S)=N/C[C@H]1CN(c2ccc(-n3nnc4ccccc43)c(F)c2)C(=O)O1`: the minimum inhibitory concentration (MIC) in [1], in experiment [2], in experiment [12], in experiment [3], in experiment [4] and in [5] was more than 16 µg/mL in each case. Also, the minimum inhibitory concentration (MIC) in experiment [6], in [7], in [8], in experiment [9], in [10] and in experiment [11] was more than 16 µg/mL in each case.

On to `O=C1O[C@@H](C/N=C(\S)OCCO)CN1c1ccc(-n2nnc3ccccc32)c(F)c1`, for which the minimum inhibitory concentration (MIC) in [1], in experiment [2], in [3], in experiment [4], in experiment [5] and in experiment [6] was more than 16 µg/mL in each case. Moreover, the MIC in experiment [7], in [8], in experiment [9], in experiment [10] and in experiment [11] was more than 16 µg/mL in each case.

For `O=C1O[C@@H](C/N=C(\S)OCC(F)(F)C(F)F)CN1c1ccc(-n2nnc3ccccc32)c(F)c1`, the MIC result in [13], in experiment [14], in [15], in [16], in experiment [17] and in experiment [18] was “inactive” in each case. Also, the MIC result in experiment [19], in experiment [20], in [21], in [22], in experiment [23] and in experiment [9] was “inactive” each time.

In the case of `CC(=O)NC[C@H]1CN(c2ccc(N3CCOCC3)c(F)c2)C(=O)O1` [LINEZOLID], the MIC in experiment [1] is more than 16 µg/mL; in experiment [2], 2 µg/mL (≈ 5.93 µM); in experiment [12], more than 16 µg/mL; in experiment [4], 2 µg/mL (≈ 5.93 µM); in experiment [5] it was 2 µg/mL (≈ 5.93 µM); in [7], more than 16 µg/mL. Further, the MIC in experiment [9] is more than 16 µg/mL.

As to `O=C1O[C@@H](CN/C(S)=N/CCO)CN1c1ccc(-n2nnc3ccccc32)c(F)c1`, the MIC was 4 µg/mL (≈ 9.29 µM) in experiment [24]; more than 16 µg/mL in [1]; 1 µg/mL (≈ 2.32 µM) in experiment [2]; 2 µg/mL (≈ 4.65 µM) in experiment [3]; 2 µg/mL (≈ 4.65 µM) in experiment [4]; 0.5 µg/mL (≈ 1.16 µM) in experiment [5]. Further, the MIC in experiment [6] is 1 µg/mL (≈ 2.32 µM); in experiment [7] it was more than 16 µg/mL; in experiment [9] it was more than 16 µg/mL; in experiment [10], 1 µg/mL (≈ 2.32 µM).

Consider `O=C1O[C@@H](C/N=C(\S)OCC(F)(F)F)CN1c1ccc(-n2nnc3ccccc32)c(F)c1`, for which the MIC result in [13], in experiment [14], in experiment [15], in [25], in [16] and in experiment [17] was “inactive” throughout. Also, the MIC entry in [18], in experiment [19], in [20], in experiment [21], in [22] and in experiment [23] was “inactive” in each case.

Take `O=C1O[C@@H](CN/C(S)=N/CCCO)CN1c1ccc(-n2nnc3ccccc32)c(F)c1`: the MIC result in experiment [13], in experiment [14], in experiment [15], in [25], in experiment [16] and in experiment [17] was “inactive” each time. Also, the MIC result in experiment [18], in [19], in experiment [20], in experiment [21], in experiment [22] and in [23] was “inactive” each time.

For `COC(=O)c1ccc2c(c1)nnn2-c1ccc(N2C[C@H](C/N=C(/N)S)OC2=O)cc1F`, the MIC in [26] worked out at 0.25 µg/mL (≈ 0.562 µM); in [27], 0.25 µg/mL (≈ 0.562 µM); in experiment [28] it was 0.25 µg/mL (≈ 0.562 µM); in experiment [2], 0.25 µg/mL (≈ 0.562 µM); in [12], 0.25 µg/mL (≈ 0.562 µM); in [5], 0.125 µg/mL (≈ 0.281 µM). The MIC in experiment [7] is more than 16 µg/mL; in [9], more than 16 µg/mL; in experiment [10] it was 0.125 µg/mL (≈ 0.281 µM); in [11], 0.25 µg/mL (≈ 0.562 µM).

Regarding `CO/C(S)=N/C[C@H]1CN(c2ccc(-n3nnc4ccccc43)c(F)c2)C(=O)O1`, the MIC in [1] is more than 16 µg/mL; in experiment [2] it was 1 µg/mL (≈ 2.49 µM); in experiment [3], 1 µg/mL (≈ 2.49 µM); in experiment [4], 0.25 µg/mL (≈ 0.623 µM); in [5] it was 0.25 µg/mL (≈ 0.623 µM); in experiment [6], 1 µg/mL (≈ 2.49 µM). The MIC in experiment [7] was more than 16 µg/mL; in experiment [8], more than 16 µg/mL; in experiment [9] it was more than 16 µg/mL; in experiment [10] it was 1 µg/mL (≈ 2.49 µM); in experiment [11], 1 µg/mL (≈ 2.49 µM).

On to `COC(=O)c1ccc2c(c1)nnn2-c1ccc(N2C[C@H](C/N=C(\S)OC)OC2=O)cc1F`, for which the MIC was 0.25 µg/mL (≈ 0.544 µM) in [2]; 0.25 µg/mL (≈ 0.544 µM) in [12]; 0.25 µg/mL (≈ 0.544 µM) in [3]; 0.25 µg/mL (≈ 0.544 µM) in experiment [4]; 0.125 µg/mL (≈ 0.272 µM) in experiment [5]; 0.25 µg/mL (≈ 0.544 µM) in experiment [6]. The MIC in [7] was more than 16 µg/mL; in experiment [9] it was more than 16 µg/mL; in [10], 0.125 µg/mL (≈ 0.272 µM); in experiment [11], 0.25 µg/mL (≈ 0.544 µM).
